Data as given in BindingDB's records for doi:10.1021/jm990041+ (Rhone-Poulenc Rorer, 1999).

These molecules were tested against Coagulation factor X (Homo sapiens, UniProt P00742) (assay: Enzyme Assay and Determination of the Inhibition Constants.). Conditions: not given.
Coagulation factor X, sequence (P00742 41-179 limits assumed): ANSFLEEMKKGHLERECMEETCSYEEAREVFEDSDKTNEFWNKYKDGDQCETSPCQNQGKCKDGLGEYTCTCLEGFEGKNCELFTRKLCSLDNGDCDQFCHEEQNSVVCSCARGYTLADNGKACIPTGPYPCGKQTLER
Coagulation factor X, sequence (P00742 235-488 limits assumed): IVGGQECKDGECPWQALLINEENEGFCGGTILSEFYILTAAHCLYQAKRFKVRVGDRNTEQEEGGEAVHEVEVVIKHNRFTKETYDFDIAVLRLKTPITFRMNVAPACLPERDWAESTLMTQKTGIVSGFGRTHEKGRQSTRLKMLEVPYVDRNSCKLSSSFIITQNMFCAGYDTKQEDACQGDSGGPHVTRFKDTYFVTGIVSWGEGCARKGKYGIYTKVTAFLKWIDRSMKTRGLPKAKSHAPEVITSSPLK

| Compound | Ki |
| --- | --- |
| C[n+]1ccc(-c2ccc(S(=O)(=O)N[C@H]3CCN(Cc4cccc(C(=N)N)c4)C3=O)cc2)cc1 [4-(4-{[(3S)-1-[(3-carbamimidoylphenyl)methyl]-2-oxopyrrolidin-3-yl]sulfamoyl}phenyl)-1-methylpyridin-1-ium] | > 1000 nM |

The molecules below were run against T1, Serine protease 1 (Bos taurus, UniProt P00760) in the same assay as above. Conditions: not given.
T1 sequence (P00760 whole entry): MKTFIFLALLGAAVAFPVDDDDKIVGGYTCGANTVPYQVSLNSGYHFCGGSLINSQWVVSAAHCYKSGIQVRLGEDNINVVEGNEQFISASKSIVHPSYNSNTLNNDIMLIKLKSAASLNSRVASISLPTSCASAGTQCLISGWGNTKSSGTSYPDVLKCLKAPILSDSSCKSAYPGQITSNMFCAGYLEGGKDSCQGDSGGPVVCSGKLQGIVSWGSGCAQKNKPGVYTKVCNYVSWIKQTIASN

| Compound | Ki |
| --- | --- |
| N=C(N)c1cccc(CN2CC[C@H](NS(=O)(=O)c3ccc(-c4cccnc4)s3)C2=O)c1 [3-[2-Oxo-3-(S)-(5-pyridin-3-ylthiophene-2-ylsulfonylamino)-pyrrolidin-1-ylmethyl]benzamidine] | > 2900 nM |
| N=C(N)c1cccc(CN2CC[C@H](NS(=O)(=O)c3ccc(-c4ccon4)s3)C2=O)c1 [3-[3-(S)-(5-Isoxazol-3-ylthiophene-2-ylsulfonylamino)-2-oxopyrrolidin-1-ylmethyl]benzamidine] | 1900 nM |
| N=C(N)c1cccc(CN2CC[C@H](NS(=O)(=O)c3ccc(-c4cccnc4)cc3)C2=O)c1 [3-{[(3S)-2-oxo-3-{[4-(pyridin-3-yl)benzene]sulfonamido}pyrrolidin-1-yl]methyl}benzene-1-carboximidamide] | > 2900 nM |
| N=C(N)c1cccc(CN2CC[C@H](NS(=O)(=O)c3ccc(-c4ccncc4)cc3)C2=O)c1 [3-{[(3S)-2-oxo-3-{[4-(pyridin-4-yl)benzene]sulfonamido}pyrrolidin-1-yl]methyl}benzene-1-carboximidamide] | > 2900 nM |
| N=C(N)c1cccc(CN2CC[C@H](NS(=O)(=O)c3ccc(-c4ccccn4)s3)C2=O)c1 [3-{[(3S)-2-oxo-3-{[5-(pyridin-2-yl)thiophene-2-]sulfonamido}pyrrolidin-1-yl]methyl}benzene-1-carboximidamide] | 2100 nM |
| N=C(N)c1cccc(CN2CC[C@H](NS(=O)(=O)c3ccc(-c4ccncc4)s3)C2=O)c1 [3-{[(3S)-2-oxo-3-{[5-(pyridin-4-yl)thiophene-2-]sulfonamido}pyrrolidin-1-yl]methyl}benzene-1-carboximidamide] | > 2900 nM |
| Cn1ccnc1-c1ccc(S(=O)(=O)N[C@H]2CCN(Cc3cccc(C(=N)N)c3)C2=O)cc1 [3-{[(3S)-3-{[4-(1-methyl-1H-imidazol-2-yl)benzene]sulfonamido}-2-oxopyrrolidin-1-yl]methyl}benzene-1-carboximidamide] | > 2900 nM |
| COc1nccc(-c2ccc(S(=O)(=O)N[C@H]3CCN(Cc4cccc(C(=N)N)c4)C3=O)s2)n1 [3-{[(3S)-3-{[5-(2-methoxypyrimidin-4-yl)thiophene-2-]sulfonamido}-2-oxopyrrolidin-1-yl]methyl}benzene-1-carboximidamide] | > 2900 nM |
| C[n+]1ccc(-c2ccc(S(=O)(=O)N[C@H]3CCN(Cc4cccc(C(=N)N)c4)C3=O)cc2)cc1 [4-(4-{[(3S)-1-[(3-carbamimidoylphenyl)methyl]-2-oxopyrrolidin-3-yl]sulfamoyl}phenyl)-1-methylpyridin-1-ium] | > 2900 nM |
| N=C(N)c1cccc(CN2CC[C@H](NS(=O)(=O)c3ccc(-c4cc[n+]([O-])cc4)cc3)C2=O)c1 [4-(4-{[(3S)-1-[(3-carbamimidoylphenyl)methyl]-2-oxopyrrolidin-3-yl]sulfamoyl}phenyl)-1-oxidopyridin-1-ium] | > 2900 nM |
| N=C(N)c1ccc(N)c(CN2CC[C@H](NS(=O)(=O)c3ccc(-c4ccon4)s3)C2=O)c1 [4-Amino-3-[3-(S)-(5-isoxazol-3-ylthiophene-2-ylsulfonylamino)-2-oxopyrrolidin-1-ylmethyl]benzamidine] | 1700 nM |
| N=C(N)c1ccc(N)c(CN2CC[C@H](NS(=O)(=O)c3ccc(-c4cccnc4)s3)C2=O)c1 [4-amino-3-{[(3S)-2-oxo-3-{[5-(pyridin-3-yl)thiophene-2-]sulfonamido}pyrrolidin-1-yl]methyl}benzene-1-carboximidamide] | 1500 nM |
| N=C(N)c1ccc(F)c(CN2CC[C@H](NS(=O)(=O)c3ccc(-c4cccnc4)s3)C2=O)c1 [4-fluoro-3-[((3S)-2-oxo-3-{[(5-pyridin-3-ylthien-2-yl)sulfonyl]amino}pyrrolidin-1-yl)methyl]benzenecarboximidamide] | > 2900 nM |
| N=C(N)c1ccc(O)c(CN2CC[C@H](NS(=O)(=O)c3ccc(-c4ccon4)s3)C2=O)c1 [4-hydroxy-3-{[(3S)-3-{[5-(1,2-oxazol-3-yl)thiophene-2-]sulfonamido}-2-oxopyrrolidin-1-yl]methyl}benzene-1-carboximidamide] | 2900 nM |

Same assay, conditions: pH 7.5; 22 °C

| Compound | Ki |
| --- | --- |
| COc1ccc2ccc(S(=O)(=O)N[C@H]3CCN(Cc4cc(C(=N)N)ccc4OCC(=O)O)C3=O)cc2c1 [2-(4-carbamimidoyl-2-{[(3S)-3-[(7-methoxynaphthalene-2-)sulfonamido]-2-oxopyrrolidin-1-yl]methyl}phenoxy)acetic acid] | > 2900 nM |
| COc1ccc2ccc(S(=O)(=O)N[C@H]3CCN(Cc4ccc(O)c(C(=N)N)c4)C3=O)cc2c1 [2-hydroxy-5-{[(3S)-3-[(7-methoxynaphthalene-2-)sulfonamido]-2-oxopyrrolidin-1-yl]methyl}benzene-1-carboximidamide] | > 2900 nM |
| COc1ccc2ccc(S(=O)(=O)N[C@H]3CCN(Cc4cc(N)cc(C(=N)N)c4)C3=O)cc2c1 [3-Amino-5-[3-(S)-(7-methoxynaphthalen-2-ylsulfonylamino)-2-oxopyrrolidin-1-ylmethyl]benzamidine] | > 2900 nM |
| N=C(N)c1cccc(CN2CC[C@H](NS(=O)(=O)c3ccc(-c4ccccc4)cc3)C2=O)c1 [3-{[(3S)-2-oxo-3-[(4-phenylbenzene)sulfonamido]pyrrolidin-1-yl]methyl}benzene-1-carboximidamide] | > 2900 nM |
| N=C(N)c1cccc(CN2CC[C@H](NS(=O)(=O)c3ccc(-c4ccccn4)cc3)C2=O)c1 [3-{[(3S)-2-oxo-3-{[4-(pyridin-2-yl)benzene]sulfonamido}pyrrolidin-1-yl]methyl}benzene-1-carboximidamide] | > 2900 nM |
| COc1ccc2ccc(S(=O)(=O)N(C)[C@H]3CCN(Cc4cccc(C(=N)N)c4)C3=O)cc2c1 [3-{[(3S)-3-[(7-methoxynaphthalene-2-)(methyl)sulfonamido]-2-oxopyrrolidin-1-yl]methyl}benzene-1-carboximidamide] | 704 nM |
| COc1ccc2ccc(S(=O)(=O)N[C@H]3CCN(Cc4cccc(C(=N)N)c4)C3=O)cc2c1 [3-{[(3S)-3-[(7-methoxynaphthalene-2-)sulfonamido]-2-oxopyrrolidin-1-yl]methyl}benzene-1-carboximidamide] | 853 nM |
| COc1ccc2ccc(S(=O)(=O)N(C)[C@H]3CCN(Cc4cc(C(=N)N)ccc4N)C3=O)cc2c1 [4-amino-3-{[(3S)-3-[(7-methoxynaphthalene-2-)(methyl)sulfonamido]-2-oxopyrrolidin-1-yl]methyl}benzene-1-carboximidamide] | 189 nM |
| COc1ccc2ccc(S(=O)(=O)N[C@H]3CCN(Cc4cc(C(=N)N)ccc4N)C3=O)cc2c1 [4-amino-3-{[(3S)-3-[(7-methoxynaphthalene-2-)sulfonamido]-2-oxopyrrolidin-1-yl]methyl}benzene-1-carboximidamide] | 299 nM |
| COc1ccc2ccc(S(=O)(=O)N[C@H]3CCN(Cc4cc(C(=N)N)ccc4O)C3=O)cc2c1 [4-hydroxy-3-{[(3S)-3-[(7-methoxynaphthalene-2-)sulfonamido]-2-oxopyrrolidin-1-yl]methyl}benzene-1-carboximidamide] | 305 nM |
| COc1ccc2ccc(S(=O)(=O)N(C)[C@H]3CCN(Cc4cc(C(=N)N)ccc4NC(C)=O)C3=O)cc2c1 [N-(4-carbamimidoyl-2-{[(3S)-3-[(7-methoxynaphthalene-2-)(methyl)sulfonamido]-2-oxopyrrolidin-1-yl]methyl}phenyl)acetamide] | > 2900 nM |
| COC(=O)COc1ccc(C(=N)N)cc1CN1CC[C@H](NS(=O)(=O)c2ccc3ccc(OC)cc3c2)C1=O [methyl 2-(4-carbamimidoyl-2-{[(3S)-3-[(7-methoxynaphthalene-2-)sulfonamido]-2-oxopyrrolidin-1-yl]methyl}phenoxy)acetate] | 12 nM |
